Experimental data published in ChEMBL document CHEMBL1201862, “PubChem BioAssay data set” (2004).
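Step 1: Grow cells in 96-well plates. Step 2: Expose to compound for 48 hours at 5 concentrations. Step 3: Interpolate endpoints linearly; if unreached, use highest concentration. GI50: concentration for 50% inhibition of growth.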 The source made the active and inactive calls. Cut-off read from the data, not from the text of the source: active = GI50 up to about 1.1 µM and inactive = higher.

Columns and labels:
Assay in all cases: growth of human tumour cells (NCI), 48 h
[1] = system: A549
[2] = system: TK-10
[3] = system: OVCAR-4
[4] = system: CCRF-CEM
[5] = system: SK-MEL-2
[6] = system: SF-268
[7] = system: NCI-H23
[8] = system: SK-MEL-28
[9] = system: SNB-75
[10] = system: SW-620
[11] = system: RXF 393
[12] = system: Malme-3M
[13] = system: HOP-62
[14] = system: K562
[15] = system: SF-539
[16] = system: UO-31
[17] = system: HL-60
[18] = system: RPMI-8226
[19] = system: HOP-92

Row | SMILES | GI50 [1] | GI50 [2] | GI50 [3] | GI50 [4] | GI50 [5] | GI50 [6] | GI50 [7] | GI50 [8] | GI50 [9] | GI50 [10] | GI50 [11] | GI50 [12] | GI50 [13] | GI50 [14] | GI50 [15] | GI50 [16] | GI50 [17] | GI50 [18] | GI50 [19]
1 | COc1cc(OC)c2ssc3c(OC)cc(OC)c4ssc1c2-c43 | > 100 µM (inactive) | > 100 µM (inactive) | > 100 µM (inactive) | > 100 µM (inactive) | > 100 µM (inactive) | > 100 µM (inactive) | > 100 µM (inactive) | > 100 µM (inactive) | 31.3 µM (inactive) | > 100 µM (inactive) | > 100 µM (inactive) | > 100 µM (inactive) | > 100 µM (inactive) | > 100 µM (inactive) | > 100 µM (inactive) |  |  |  | 
2 | CCCCCCCCCCCCCCCCNc1cccc2ccccc12 | > 100 µM (inactive) | > 100 µM (inactive) |  | > 100 µM (inactive) |  | > 100 µM (inactive) | > 100 µM (inactive) | > 100 µM (inactive) | > 100 µM (inactive) | > 100 µM (inactive) | > 100 µM (inactive) | > 100 µM (inactive) | > 100 µM (inactive) | > 100 µM (inactive) | > 100 µM (inactive) | > 100 µM (inactive) | > 100 µM (inactive) | > 100 µM (inactive) | 
3 | O=C(Nc1ccc(Cl)cc1Cl)C1C(=O)C(=O)N(c2ccc(Cl)cc2Cl)C1=O (stereo unspecified) | > 100 µM (inactive) | > 100 µM (inactive) | > 100 µM (inactive) |  |  | > 100 µM (inactive) | > 100 µM (inactive) | > 100 µM (inactive) | > 100 µM (inactive) | > 100 µM (inactive) | 37.8 µM (inactive) | > 100 µM (inactive) | > 100 µM (inactive) |  | > 100 µM (inactive) | > 100 µM (inactive) | > 100 µM (inactive) |  | 
4 | NC(=O)N=C(NCc1ccccc1)NCc1ccccc1 | > 100 µM (inactive) | > 100 µM (inactive) | > 100 µM (inactive) |  | > 100 µM (inactive) | > 100 µM (inactive) | > 100 µM (inactive) | > 100 µM (inactive) |  | > 100 µM (inactive) |  |  | > 100 µM (inactive) |  | > 100 µM (inactive) | > 100 µM (inactive) |  |  | 20 µM (inactive)
5 | CC(=O)N/C(=C\c1ccc(/C=C(\NC(C)=O)c2nc3cc(Cl)ccc3[nH]2)cc1)c1nc2ccccc2[nH]1 | > 100 µM (inactive) | > 100 µM (inactive) |  | > 100 µM (inactive) | > 100 µM (inactive) | > 100 µM (inactive) | > 100 µM (inactive) | > 100 µM (inactive) | > 100 µM (inactive) | > 100 µM (inactive) |  | > 100 µM (inactive) | > 100 µM (inactive) | > 100 µM (inactive) | > 100 µM (inactive) |  |  | > 100 µM (inactive) | > 100 µM (inactive)
6 | CN(CCN(C)C(=O)CCn1ccc(=O)[nH]c1=O)C(=O)CCn1ccc(=O)[nH]c1=O | > 100 µM (inactive) | > 100 µM (inactive) | > 100 µM (inactive) | > 100 µM (inactive) | > 100 µM (inactive) | > 100 µM (inactive) | > 100 µM (inactive) | > 100 µM (inactive) | 22.4 µM (inactive) | > 100 µM (inactive) | > 100 µM (inactive) | > 100 µM (inactive) | > 100 µM (inactive) | > 100 µM (inactive) | > 100 µM (inactive) | > 100 µM (inactive) | > 100 µM (inactive) | > 100 µM (inactive) | 
7 | CN(C)CC(C)(C)C(/C=C/c1ccccc1)=N\Nc1ccccc1 | 0.385 µM (active) | 0.162 µM (active) | 1.06 µM (active) | 0.367 µM (active) | 3.6 µM (inactive) | 0.172 µM (active) | 10.6 µM (inactive) | 1.89 µM (inactive) | 14.6 µM (inactive) | 0.375 µM (active) | 18 µM (inactive) | 10.4 µM (inactive) | 2.77 µM (inactive) | 0.238 µM (active) | 0.28 µM (active) | 0.0836 µM (active) | 1.16 µM (inactive) | 1.68 µM (inactive) | 
8 | O=C(CC1(O)C(=O)Nc2ccc([N+](=O)[O-])cc21)c1ccc2ccccc2c1 (stereo unspecified) | > 100 µM (inactive) | > 100 µM (inactive) | > 100 µM (inactive) | > 100 µM (inactive) | > 100 µM (inactive) | > 100 µM (inactive) | > 100 µM (inactive) | > 100 µM (inactive) | > 100 µM (inactive) | > 100 µM (inactive) | > 100 µM (inactive) | > 100 µM (inactive) | > 100 µM (inactive) | > 100 µM (inactive) | > 100 µM (inactive) | > 100 µM (inactive) | > 100 µM (inactive) | > 100 µM (inactive) | 
9 | CCO/N=C(/N)c1ncn(Cc2ccccc2)c1NCC(OCC)OCC | > 100 µM (inactive) | > 100 µM (inactive) |  | > 100 µM (inactive) | > 100 µM (inactive) | > 100 µM (inactive) |  |  | > 100 µM (inactive) | > 100 µM (inactive) | 29.2 µM (inactive) | > 100 µM (inactive) | > 100 µM (inactive) | > 100 µM (inactive) | > 100 µM (inactive) | > 100 µM (inactive) |  | > 100 µM (inactive) | 
10 | CC1OC(=O)N2CCC=CC12 (stereo unspecified) | > 100 µM (inactive) | > 100 µM (inactive) | > 100 µM (inactive) | > 100 µM (inactive) | > 100 µM (inactive) | > 100 µM (inactive) | > 100 µM (inactive) | > 100 µM (inactive) | > 100 µM (inactive) | > 100 µM (inactive) | > 100 µM (inactive) | > 100 µM (inactive) |  | > 100 µM (inactive) | > 100 µM (inactive) | > 100 µM (inactive) |  | > 100 µM (inactive) | 
11 | COC(=O)C1C2C=CC(C2)N1[C@@H](C)c1ccccc1 (stereo partly specified) | > 100 µM (inactive) | > 100 µM (inactive) |  | > 100 µM (inactive) | > 100 µM (inactive) | > 100 µM (inactive) | > 100 µM (inactive) | > 100 µM (inactive) | > 100 µM (inactive) | > 100 µM (inactive) |  | > 100 µM (inactive) | > 100 µM (inactive) | > 100 µM (inactive) | > 100 µM (inactive) | > 100 µM (inactive) | > 100 µM (inactive) | > 100 µM (inactive) | > 100 µM (inactive)
12 | O=[N+]([O-])c1nccn1CC(O)CN1CC1 (stereo unspecified) | > 100 µM (inactive) | > 100 µM (inactive) | 74.5 µM (inactive) | 24.7 µM (inactive) | 41.6 µM (inactive) | 91.6 µM (inactive) | 36.4 µM (inactive) | > 100 µM (inactive) | 42.8 µM (inactive) | 63.8 µM (inactive) | 25.5 µM (inactive) | > 100 µM (inactive) | 74.3 µM (inactive) | 46 µM (inactive) | 55.6 µM (inactive) | 37.8 µM (inactive) | 24.8 µM (inactive) | 49.4 µM (inactive) | 
